The values that follow come from patent publication US9381208B2, “Structure and use of 5′ phosphate oligonucleotides” (Rheinische Friedrich-Wilhelms-Universität, priority 2006, dated 2016).

{ppp} = triphosphate group; {Biotin} = biotin label U

Data set [1] has as its target T1, RIG-I (Homo sapiens, UniProt O95786).
T1 sequence (O95786 1-925): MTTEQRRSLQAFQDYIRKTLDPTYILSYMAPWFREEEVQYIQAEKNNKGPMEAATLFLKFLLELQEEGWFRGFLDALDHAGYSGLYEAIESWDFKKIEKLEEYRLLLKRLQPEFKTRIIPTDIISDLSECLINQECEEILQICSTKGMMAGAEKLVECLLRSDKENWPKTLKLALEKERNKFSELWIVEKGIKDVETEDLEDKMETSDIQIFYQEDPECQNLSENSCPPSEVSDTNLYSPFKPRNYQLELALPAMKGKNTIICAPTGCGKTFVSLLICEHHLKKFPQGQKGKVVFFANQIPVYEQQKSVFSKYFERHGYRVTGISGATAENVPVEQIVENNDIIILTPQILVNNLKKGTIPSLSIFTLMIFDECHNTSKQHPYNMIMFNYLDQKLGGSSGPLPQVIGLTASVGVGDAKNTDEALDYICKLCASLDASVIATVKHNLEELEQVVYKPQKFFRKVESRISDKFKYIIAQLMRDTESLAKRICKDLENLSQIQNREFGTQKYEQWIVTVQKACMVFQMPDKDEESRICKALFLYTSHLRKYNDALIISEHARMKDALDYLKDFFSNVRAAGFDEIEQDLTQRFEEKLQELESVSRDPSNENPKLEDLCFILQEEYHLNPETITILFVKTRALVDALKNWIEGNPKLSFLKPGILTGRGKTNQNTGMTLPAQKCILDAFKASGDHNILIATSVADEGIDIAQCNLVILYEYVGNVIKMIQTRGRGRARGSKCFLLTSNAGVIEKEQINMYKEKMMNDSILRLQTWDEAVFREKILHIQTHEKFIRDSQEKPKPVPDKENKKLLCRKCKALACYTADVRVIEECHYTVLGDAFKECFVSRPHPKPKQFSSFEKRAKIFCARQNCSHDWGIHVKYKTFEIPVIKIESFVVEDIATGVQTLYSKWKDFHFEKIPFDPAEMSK
Nature of the data set: pIFN-beta-Luc reporter assay in HEK 293 cells transfected with RIG-I. In kind it is cell-based. The arrangement: Only HEK 293 cells expressing full length RIG-I responded to 5′triphosphate RNA; FLAG; expressed in transfected cells; host or cells: HEK 293. The conditions noted are these: HEK 293 cells expressing full length RIG-I, 200 ng, 24 hours.

Another data set concerns Caspase-1. Nature of the data set: Caspase-1 activation in B16 cells (western blot). In kind it is cell-based, murine. The conditions noted are these: 24 hours. As to the method:
(e) B16 cells were incubated with control siRNA, 3p-2.2 and poly(I:C) for 24 hours and assessed for caspase-1 activity via immunoblotting. α-Tublin served as loading control. One representative experiment of three is shown.
(§1) For Western blotting, samples were separated by SDS-PAGE and transferred to a nitrocellulose membrane (Amersham-Biosciences, UK) by semi-dry electroblotting. As primary antibody polyclonal rat anti-RIG-I (kind gift of Dr. Kremer), polyclonal rabbit anti-Bcl-2 (Santa Cruz, sc-7382) and rabbit anti-caspase-1 (Santa Cruz, sc-7148) antibody were used. As secondary antibody, peroxidase-conjugated anti-mouse or anti-rabbit antibody (Amersham-Biosciences) were used. Bound antibodies were visualized by enhanced chemiluminescence system (ECL) according to the manufacturer's protocol (Amersham-Biosciences).
For orientation: Immunoblotting shows a protein as a band on a membrane.

Data set [2] concerns RIG-I. Nature of the data set: Ligand binding studies: pull-down of RIG-I by biotinylated RNA. The note with it: CARD2 and RIG-I Δ Helicase_C. Here is the method: (§2) Cell lysates were prepared according to Meister et al. (G. Meister et al., Mol Cell 15, 185 (Jul. 23, 2004)) with minor modifications. HEK 293 cells were transfected using high molecular weight (25 kDa) polyethylenimine (PEI; Sigma, 40.872-7). At a confluency of 80-90%, cells were transfected with a PEI:DNA ratio of 1.5:1. 24-36 hours after transfection cells were harvested and the cell pellet was resuspended in five pellet volumes of 10 mM KCl, 1.5 mM MgCl2, 0.5 mM dithiothreitol, 10 mM HEPES-NaOH (pH 7.9), 0.5 mM PMSF and incubated for ten minutes on ice. Subsequently cells were washed and the cell pellet was resuspended in two pellet volumes of the buffer described above and homogenized by douncing. The cell nuclei were removed from the cell lysate by centrifugation at 2.000 g for ten minutes. The supernatant was transferred into microcentrifuge tubes and cleared further by centrifugation at 2.000 g for ten minutes and further centrifugation for 30 minutes at 20.000 g to obtain the cytoplasmic extract. The concentration of KCl of the extract was subsequently raised to 100 mM by addition of 2 M KCl and glycerol was added to a percentage of 10%. For purification of FLAG-tagged RIG-IC complexes, cytoplasmic extracts were incubated in FLAG M2 agarose beads (Sigma). FLAG M2 agarose beads were washed once with 0.1 M glycine (pH 3.5) and equilibrated by washing with 1 M Tris-HCl (pH 8.0). […]

For data set [3], the target named is T1, RIG-I. The description is as above. Further details: HEK 293 cells were transiently transfected with full length RIG-I, RIG-I CARD2 or RIG-I ΔHELIc; expressed in transfected cells; host or cells: HEK 293 (whole cell lysate). The note with it: whole cell lysate of HEK 293 cells overexpressing full length RIG-I. Here is the method:
as §2

In data set [4] the test system is B16 melanoma lung metastases. The data set is described as follows: B16 melanoma lung metastases model. In kind it is in vivo. The conditions noted are these: C57BL/6 mice, 50 μg complexed with jetPEI intravenously on day 3, 6 and 9, day 14, compared with PolyA. As to the method: (a) Therapeutic regimen: Mice were challenged with 4×10^5 B16 melanoma cells intravenously to experimentally induce lung metastases on day 0. Mice were treated intravenously with the indicated nucleic acid complexed to jetPEI™ on day 3, 6 and 9 as indicated. 14 days after challenge, the number of macroscopically visible melanoma metastases on the surface of the lungs was counted with the help of a dissecting microscope or the lung weight was calculated.
(b) Groups of five C57BL/6 mice were challenged with 4×10^5 B16 and treated as described. Mice were treated intravenously on day 3, 6 and 9 with 50 μg of OH-2.2, 50 μg 3p-2.2, 50 μg 3p-GC (a nonspecific double-stranded 3p-RNA) or 50 μg CpG oligonucleotide ligand, each complexed with jetPEI™. Control groups received 100 μl of Glucose 5% or 50 μg of PolyA complexed with jetPEI™. Tumor growth was assessed after 14 days by measuring the weight of the lungs. Shown are lung weights of five individual mice. The mean lung weight is indicated by a column. […]
For the induction of lung metastases we injected 4×10^5 B16 melanoma cells into the tail vein of the indicated mice. […] 14 days after challenge the number of macroscopically visible melanoma metastases on the surface of the lungs was counted with the help of a dissecting microscope or, in case of massive tumor load, lung weight was determined. […]

Data set [5] is described as follows: Blood cell counts (leucocytes, platelets) after injection. In kind it is in vivo, C57BL/6 mice. The conditions noted are these: 50 μg, 48 hours. As to the method:
(b & c) C57BL/6 mice were injected with 50 μg 3p-2.2 complexed with jetPEI™. Blood was collected after 48 h and processed as EDTA […] for measurement of leucocytes (WBC) and platelets. Blood cell counts were performed at the Central Laboratory of the Department of Internal Medicine, University of Munich at the indicated time point (P**<0.01 between the platelet count of 3p-2.2 and CpG). Data are shown as means±SEM of 2 independent experiments.

Data set [6] has as its system RIG-I. The data set is described as follows: Expression of endogenous RIG-I in B16 cells (western blot). In kind it is cell-based, murine. The conditions noted are these: 6 hours. Here is the method: (b) To determine the endogenous expression of RIG-I, B16 cells were stimulated with 3p-2.2 (1.2 μg/well) and murine IFN-β (1000 U/ml). After 6 hours cells were lysed and analyzed for endogenous expression of RIG-I by Western Blot. HEK293 cells overexpressing full-length RIG-I served as positive control. One representative experiment of two is shown.
as §1

For the molecule “Polyinosinic:polycytidylic acid [poly(I:C)]”, the “IFN-β promoter reporter expression” value on RIG-I [1] is listed as “did not respond”. Besides, the “cleavage of procaspase-1” value in the data set with Caspase-1 is on record as “increased cleavage of procaspase-1 to active subunit p10”.

Turning to “tri-G-AC-U-Bio: biotinylated 5′ triphosphate oligonucleotide, SEQ ID NO: 349, 3′ terminal biotinylated U (GGGAGACAGGCACCACACACACACACACUUU; RNA, 5' {ppp}, 3' {Biotin}, backbone not given here; biotin attached to the 3'-terminal U)”, the “pull-down of truncated versions of RIG-I” value in the data set with RIG-I [2] is reported as “not very effective at pulling down”. In addition, in the data set with RIG-I [3], the “pull-down of full length RIG-I” value is reported as “able to immunoprecipitate full length RIG-I”. Consider 5′-TCCATGACGTTCCTGACGTT-3′ [CpG 1826], for which the lung metastases entry in data set [4] is listed as “significant reduction of lung metastases, but to a lesser extent than 3p-2.2”. For the same molecule, the thrombocytopenia result in data set [5] is recorded as “more apparent”.

B1: IFN-β: Recombinant murine IFNβ (protein, UniProt P01575 22-182, looked up)
Interferon beta: INYKQLQLQERTNIRKCQELLEQLNGKINLTYRADFKIPMEMTEKMQKSYTAFAIQEMLQNVFLVFRNNFSSTGWNETIVVRLLDELHQQTVFLKTVLEEKQEERLTWEMSSTALHLKSYYWRVQRYLKLMKYNSYAWMVVRAEIFRNFLIIRRLTRNFQN
For B1, the RIG-I-expression entry in the data set on RIG-I [6] was “strongly upregulated”.
